In patent publication US20240245793A1, “PSD-95 INHIBITORS AND USES THEREOF” (priority 2021, published 2024):
Like-named read-outs stand apart in the source and are kept apart here.

System: HeLa cells stably expressing HaloGFP
Assay: Chloroalkane penetration assay (CAPA), membrane permeability and cellular uptake
Type: cell-based
From the text: Since PSD-95 is located intracellularly, it is essential for any drug targeting PSD-95 to efficiently cross the cell membrane. To assess the cellular permeability and delivery to the cytosol of the compounds as defined herein, the cellular chloroalkane penetration assay (CAPA) may be used (Peraro et al. 2018). This assay takes advantage of a modified haloalkane dehalogenase designed to covalently bind chloroalkane (CA) molecules. A HeLa cell line expressing a fusion protein comprising a HaloTag, a green fluorescent protein (GFP) and a mitochondria-targeting peptide is used to report cytosolic delivery. The general format of the CAPA is a pulse-chase assay (Deprey & Kritzer, 2020). Cells expressing the HaloTag enzyme are incubated with CA-tagged peptides. When these CA-peptides penetrate the cell membrane and reach the cytosol, they will bind to and react with the HaloTag (pulse step). Following a washing step, the cells are incubated with a CA-tagged dye that quantitatively penetrates the cell membrane and reacts with remaining unreacted HaloTag sites (chase step). Flow cytometry is used to measure the fluorescence intensity of the cells and the measured fluorescence is inversely proportional to the amount of CA-peptides that reach the penetrated the cells and can thus be used to assess cytosolic delivery. The obtained data is commonly expressed as CP50 values, the concentration at which 50% cell penetration is observed. The CP50 value of a compound may be measured as described in example 4.
The membrane permeability of compounds 10 to 75 was determined in HeLa cells stably expressing HaloGFP exclusively located in the cytosol. Cells were seeded at a density of 40.000 cells/well one day prior to the experiment. After the growth media was aspirated and replaced by 100 μL of Opti-MEM, 25 μL of a prepared serial dilution of the ligand in Opti-MEM was added to the cells (constant DMSO concentration), and the plate was incubated for 4 h at 37° C. and 5% CO2. The contents of the wells were aspirated, and cells were washed with fresh Opti-MEM for 15 min. After aspiration of the wash, the cells were incubated with TAMRA-CA (5 μM) for 15 min. After aspiration of the chase solution, cells were washed with Opti-MEM for 30 min. Following removal of the wash, cells were trypsinized, resuspended in PBS (2% FBS), and analyzed using a benchtop flow cytometer. Using no ligand and no TAMRA-CA control well, the obtained fluorescence intensity data was normalized and plotted as dose-response curves. Reported CP50 values represent half-maximum red fluorescence which behaves inverse to cell penetration of the ligand.

CP50 [µM] | SMILES | CP50 (CA-tagged NPEG4-(IETDV)2 with various CPP-tags, 4 h at 37° C., mean ± SEM (Table 11, FIG. 8)) [µM]
0.68 ± 0.05 | CC(C)[C@H](NC(=O)[C@H](CCCNC(=N)N)NC(=O)[C@@H](NC(=O)[C@H](CCC(=O)O)NC(=O)[C@H](CCCCN)NC(=O)CCOCCOCCN(CCOCCOCCC(=O)N[C@@H](CCCCN)C(=O)N[C@@H](CCC(=O)O)C(=O)N[C@H](C(=O)N[C@@H](CCCNC(=N)N)C(=O)N[C@H](C(=O)O)C(C)C)[C@@H](C)O)C(=O)[C@H](CCCNC(=N)N)NC(=O)[C@H](CCCNC(=N)N)NC(=O)[C@H](CCCNC(=N)N)NC(=O)[C@H](CCCNC(=N)N)NC(=O)[C@H](CCCNC(=N)N)NC(=O)[C@H](CCCNC(=N)N)NC(=O)[C@H](CCCNC(=N)N)NC(=O)[C@H](CCCNC(=N)N)NC(=O)[C@H](CCCNC(=N)N)NC(=O)CCC(=O)NCCOCCOCCCCCCCl)[C@@H](C)O)C(=O)O [Compound 30] | –
1.05 ± 0.15 | CC[C@H](C)[C@H](NC(=O)CCOCCOCCN(CCOCCOCCC(=O)N[C@H](C(=O)N[C@@H](CO)C(=O)N[C@H](C(=O)N[C@@H](CC(=O)O)C(=O)N[C@H](C(=O)O)C(C)C)[C@@H](C)O)[C@@H](C)CC)C(=O)[C@H](CCCNC(=N)N)NC(=O)[C@H](CCCNC(=N)N)NC(=O)[C@H](CCCNC(=N)N)NC(=O)[C@H](CCCNC(=N)N)NC(=O)[C@H](CCCNC(=N)N)NC(=O)[C@H](CCCNC(=N)N)NC(=O)[C@H](CCCNC(=N)N)NC(=O)[C@H](CCCNC(=N)N)NC(=O)[C@H](CCCNC(=N)N)NC(=O)CCC(=O)NCCOCCOCCCCCCCl)C(=O)N[C@@H](CO)C(=O)N[C@H](C(=O)N[C@@H](CC(=O)O)C(=O)N[C@H](C(=O)O)C(C)C)[C@@H](C)O [Compound 32] | –
0.84 ± 0.15 | CC(C)[C@H](NC(=O)[C@@H](NC(=O)[C@@H](NC(=O)[C@H](CCC(=O)O)NC(=O)[C@@H](NC(=O)CCOCCOCCN(CCOCCOCCC(=O)N[C@H](C(=O)N[C@@H](CCC(=O)O)C(=O)N[C@H](C(=O)N[C@H](C(=O)N[C@H](C(=O)O)C(C)C)C(C)C)[C@@H](C)O)C(C)C)C(=O)[C@H](CCCNC(=N)N)NC(=O)[C@H](CCCNC(=N)N)NC(=O)[C@H](CCCNC(=N)N)NC(=O)[C@H](CCCNC(=N)N)NC(=O)[C@H](CCCNC(=N)N)NC(=O)[C@H](CCCNC(=N)N)NC(=O)[C@H](CCCNC(=N)N)NC(=O)[C@H](CCCNC(=N)N)NC(=O)[C@H](CCCNC(=N)N)NC(=O)CCC(=O)NCCOCCOCCCCCCCl)C(C)C)[C@@H](C)O)C(C)C)C(=O)O [Compound 34] | –
– | CC[C@H](C)[C@H](NC(=O)CCOCCOCCN(CCOCCOCCC(=O)N[C@H](C(=O)N[C@@H](CCC(=O)O)C(=O)N[C@H](C(=O)N[C@@H](CC(=O)O)C(=O)N[C@H](C(=O)O)C(C)C)[C@@H](C)O)[C@@H](C)CC)C(=O)[C@@H](CCCNC(=N)N)NC(=O)[C@@H](CCCNC(=N)N)NC(=O)[C@@H](CCCNC(=N)N)NC(=O)[C@@H](CCC(N)=O)NC(=O)[C@@H](CCCNC(=N)N)NC(=O)[C@@H](CCCNC(=N)N)NC(=O)[C@@H](CCCCN)NC(=O)[C@@H](CCCCN)NC(=O)[C@@H](CCCNC(=N)N)NC(=O)CNC(=O)[C@@H](Cc1ccc(O)cc1)NC(=O)CCC(=O)NCCOCCOCCCCCCCl)C(=O)N[C@@H](CCC(=O)O)C(=O)N[C@H](C(=O)N[C@@H](CC(=O)O)C(=O)N[C@H](C(=O)O)C(C)C)[C@@H](C)O [Compound 39] | 10.7 ± 0.7
180 ± 8.2 | CC[C@H](C)[C@H](NC(=O)CCOCCOCCN(CCOCCOCCC(=O)N[C@H](C(=O)N[C@@H](CCC(=O)O)C(=O)N[C@H](C(=O)N[C@@H](CC(=O)O)C(=O)N[C@H](C(=O)O)C(C)C)[C@@H](C)O)[C@@H](C)CC)C(=O)[C@@H](CCCNC(=N)N)NC(=O)[C@H](CCCNC(=N)N)NC(=O)[C@@H](CCCCN)NC(=O)[C@H](CCCCN)NC(=O)[C@@H](CCCNC(=N)N)NC(=O)CNC(=O)[C@@H](CCCNC(=N)N)NC(=O)[C@H](CCCNC(=N)N)NC(=O)[C@@H](CCCNC(=N)N)NC(=O)CCC(=O)NCCOCCOCCCCCCCl)C(=O)N[C@@H](CCC(=O)O)C(=O)N[C@H](C(=O)N[C@@H](CC(=O)O)C(=O)N[C@H](C(=O)O)C(C)C)[C@@H](C)O [Compound 41] | –
221 ± 36 | CC[C@H](C)[C@H](NC(=O)CCOCCOCCN(CCOCCOCCC(=O)N[C@H](C(=O)N[C@@H](CCC(=O)O)C(=O)N[C@H](C(=O)N[C@@H](CC(=O)O)C(=O)N[C@H](C(=O)O)C(C)C)[C@@H](C)O)[C@@H](C)CC)C(=O)[C@@H](CCCNC(=N)N)NC(=O)[C@@H](CCCCN)NC(=O)[C@@H](CCCCN)NC(=O)[C@@H](CCCNC(=N)N)NC(=O)[C@@H](CCCNC(=N)N)NC(=O)[C@@H](CCC(N)=O)NC(=O)[C@@H](CCCNC(=N)N)NC(=O)[C@@H](CCCNC(=N)N)NC(=O)[C@@H](CCCNC(=N)N)NC(=O)CCC(=O)NCCOCCOCCCCCCCl)C(=O)N[C@@H](CCC(=O)O)C(=O)N[C@H](C(=O)N[C@@H](CC(=O)O)C(=O)N[C@H](C(=O)O)C(C)C)[C@@H](C)O [Compound 43] | –
161 ± 25 | CC[C@H](C)[C@H](NC(=O)CCOCCOCCN(CCOCCOCCC(=O)N[C@H](C(=O)N[C@@H](CCC(=O)O)C(=O)N[C@H](C(=O)N[C@@H](CC(=O)O)C(=O)N[C@H](C(=O)O)C(C)C)[C@@H](C)O)[C@@H](C)CC)C(=O)[C@@H](CCCNC(=N)N)NC(=O)[C@@H](CCCNC(=N)N)NC(=O)[C@@H](CCCNC(=N)N)NC(=O)[C@@H](CCCNC(=N)N)NC(=O)[C@@H](CCCNC(=N)N)NC(=O)[C@@H](CCCNC(=N)N)NC(=O)[C@@H](CCCNC(=N)N)NC(=O)[C@@H](CCCNC(=N)N)NC(=O)[C@@H](CCCNC(=N)N)NC(=O)CCC(=O)NCCOCCOCCCCCCCl)C(=O)N[C@@H](CCC(=O)O)C(=O)N[C@H](C(=O)N[C@@H](CC(=O)O)C(=O)N[C@H](C(=O)O)C(C)C)[C@@H](C)O [Compound 45] | –
3.2 ± 0.5 | CC[C@H](C)[C@H](NC(=O)CCOCCOCCN(CCOCCOCCC(=O)N[C@H](C(=O)N[C@@H](CCC(=O)O)C(=O)N[C@H](C(=O)N[C@@H](CC(=O)O)C(=O)N[C@H](C(=O)O)C(C)C)[C@@H](C)O)[C@@H](C)CC)C(=O)[C@H](CO)NC(=O)[C@H](CCC(=O)O)NC(=O)[C@H](CCCNC(=N)N)NC(=O)[C@H](CCCNC(=N)N)NC(=O)[C@H](CCCNC(=N)N)NC(=O)[C@H](CCCCN)NC(=O)[C@H](CCCCN)NC(=O)[C@H](CCCNC(=N)N)NC(=O)[C@H](CO)NC(=O)[C@H](CCC(=O)O)NC(=O)[C@H](CCCNC(=N)N)NC(=O)[C@H](CCCNC(=N)N)NC(=O)[C@H](CCCNC(=N)N)NC(=O)[C@H](CCCCN)NC(=O)[C@H](CCCCN)NC(=O)[C@H](CCCNC(=N)N)NC(=O)CCC(=O)NCCOCCOCCCCCCCl)C(=O)N[C@@H](CCC(=O)O)C(=O)N[C@H](C(=O)N[C@@H](CC(=O)O)C(=O)N[C@H](C(=O)O)C(C)C)[C@@H](C)O [Compound 51] | –
1.7 ± 0.1 | CC[C@H](C)[C@H](NC(=O)CCOCCOCCN(CCOCCOCCC(=O)N[C@H](C(=O)N[C@@H](CCC(=O)O)C(=O)N[C@H](C(=O)N[C@@H](CC(=O)O)C(=O)N[C@H](C(=O)O)C(C)C)[C@@H](C)O)[C@@H](C)CC)C(=O)[C@H](CCCCN)NC(=O)[C@H](CO)NC(=O)[C@H](Cc1c[nH]cn1)NC(=O)[C@H](C)NC(=O)[C@H](Cc1c[nH]cn1)NC(=O)[C@H](C)NC(=O)[C@H](CCC(N)=O)NC(=O)[C@H](CCCCN)NC(=O)[C@H](CCCNC(=N)N)NC(=O)[C@@H](NC(=O)[C@H](CCCNC(=N)N)NC(=O)[C@H](CCCNC(=N)N)NC(=O)[C@H](CCCNC(=N)N)NC(=O)[C@H](CC(C)C)NC(=O)[C@@H](NC(=O)[C@@H](NC(=O)[C@H](CC(C)C)NC(=O)[C@H](CC(C)C)NC(=O)CCC(=O)NCCOCCOCCCCCCCl)[C@@H](C)CC)[C@@H](C)CC)[C@@H](C)CC)C(=O)N[C@@H](CCC(=O)O)C(=O)N[C@H](C(=O)N[C@@H](CC(=O)O)C(=O)N[C@H](C(=O)O)C(C)C)[C@@H](C)O [Compound 53] | –
3.7 ± 0.3 | CC[C@H](C)[C@H](NC(=O)CCOCCOCCN(CCOCCOCCC(=O)N[C@H](C(=O)N[C@@H](CCC(=O)O)C(=O)N[C@H](C(=O)N[C@@H](CC(=O)O)C(=O)N[C@H](C(=O)O)C(C)C)[C@@H](C)O)[C@@H](C)CC)C(=O)[C@H](C)NC(=O)[C@H](CC(C)C)NC(=O)[C@H](CCCCN)NC(=O)[C@H](CC(C)C)NC(=O)[C@H](C)NC(=O)[C@H](C)NC(=O)[C@H](CCCCN)NC(=O)[C@H](CC(C)C)NC(=O)[C@H](C)NC(=O)[C@H](CCCCN)NC(=O)[C@H](CC(C)C)NC(=O)[C@H](C)NC(=O)[C@H](CC(C)C)NC(=O)[C@H](CCCCN)NC(=O)[C@H](CC(C)C)NC(=O)[C@H](C)NC(=O)[C@H](CC(C)C)NC(=O)[C@H](CCCCN)NC(=O)CCC(=O)NCCOCCOCCCCCCCl)C(=O)N[C@@H](CCC(=O)O)C(=O)N[C@H](C(=O)N[C@@H](CC(=O)O)C(=O)N[C@H](C(=O)O)C(C)C)[C@@H](C)O [Compound 55] | –
